Tested on: microorganisms
Conditions: display water (vase water) of cut flowers; prior art antimicrobial

O=C(O)CC(O)(CC(=O)O)C(=O)O.Oc1cccc2cccnc12 [8-hydroxy quinoline citrate]
growth of microorganisms: enhance the growth of microorganisms after an initial diminution of their level
